Legend:
[1] = Test for water solubility; format: physicochemical
Text: 3. Test for water solubility
A standard plot of UV absorbance(220 nm) vs. concentration was made; and employed to determine water-solubility.
The mixture was then passed through a 0.45 micron disposable membrane filter before dilution and UV measurement.

[2] = test system: murine leukemia L1210 cells; assay: Growth inhibition test on cultured murine leukemia L1210 cells; format: cell-based; conditions: 48 hours, 37° C., Trypan blue viability
Description: 1. Growth inhibition test on cultured murine leukemia L1210 cells
Murine leukemia L1210 cells(1×10^5) were treated with various concentrations of the compounds prepared in the above examples in RPMI 1640 medium supplemented with 10% fetal calf serum, and cultured in a 5% CO2 humidified incubator at 37° C. for 48 hours. Their viability, estimated by staining with 0.17% Trypan blue, was compared with that of control cells cultured in the identical medium without the compounds.

murine leukemia L1210 = assay: Antitumor activity test on murine leukemia L1210 in vivo; design: species or system male BDF1 mice; conditions: days 1, 5, 9
Description: 2. Antitumor activity test on murine leukemia L1210 in vivo
Murine leukemia L1210 cells were maintained in the peritoneal cavities of 6-week-old male DBA/2 mice by weekly transfer in accordance with the procedure described in cancer chemotherapy Reports, Part 3, 3(2), 7 (1972). Specifically, 1×10^6 leukemia cells were inoculated into the abdominal cavities of 6-week-old male BDF1 mice weighing 21±3 g on day 0. Each treatment group consisted of seven mice. The test compounds were dissolved or suspended in 0.5% carboxymethyl cellulose(CMC)solution (in water) and were administered intraperitoneally on days 1, 5, and 9 relative to the tumor inoculation.
Thirty mice of 6-week-old male BDF1 weighing 21±3 g were used as the control group, which were injected with 0.5% CMC solution only in the same manner as above.
Anti-tumor activities of the compounds were evaluated in terms of the T/C % values calculated from the mean survival time(T) of the compound-treated group over that(C) of the control group. [formula]

ICR mice = assay: Acute toxicity test; format: in vivo; design: Lethality: unit not given here; conditions: for Lethality: 10080 min
Description: 7-week-old ICR mice(male: 34±2 g; female: 31±2 g) were fed with solid food and water under the condition of 23±1° C. temperature and 65±5% humidity before the test.
Each treatment group consisted of 6 mice. The test compounds were administered intraperitoneally.
For 7 days after the administration, the appearance and the fate of the tested animals were recorded. The dead animals were subjected to autopsy and their visible pathological changes were observed. Their viscerals were stored in 10% formalin solution.

## CC(C)C1OC2C[NH2+][Pt-2]3([NH2+]CC2O1)[O]C(=O)C1(CCC1)C(=O)[O]3 [Example 29, cis-cyclobutane-1,1-dicarboxylato[(4S,5S)-4,5-bis(aminomethyl)-2-isopropyl-1,3-dioxolane]platinum(II)]
[1]; 20° C.
  Solubility in water: 2000 µg/mL
[2]
  IC50 (concentration required for 50% inhibition of growth): 2.12 µg/mL

## CC(C)C1OC2C[NH2+][Pt-2]3([NH2+]CC2O1)[O]C(=O)C1(CCC1)C(=O)[O]3 [Example 28, cis-cyclobutane-1,1-dicarboxylato[(4R,5R)-4,5-bis(aminomethyl)-2-isopropyl-1,3-dioxolane]platinum(II)]
[1]; water
  Solubility in water: 2100 µg/mL
Murine leukemia L1210; 6.2 mg/kg i.p.
  T/C (%): 113%
Murine leukemia L1210; 12.5 mg/kg i.p.
  T/C (%): 106%
Murine leukemia L1210; 25 mg/kg i.p.
  T/C (%): 126%
Murine leukemia L1210; 50 mg/kg i.p.
  T/C (%): 133%
Murine leukemia L1210; 100 mg/kg i.p.
  T/C (%): 130%
[2]
  IC50 (concentration required for 50% inhibition of growth): 1.14 µg/mL

## CCC1C(=O)[O][Pt]2([NH]C[C@H]3OC4(CCCC4)O[C@@H]3C[NH]2)[O]C1=O (stereo partly drawn) [Example 45, cis-ethylmalonato[(4R,5R)-4,5-bis(aminomethyl)-1,3-dioxolane-2-spiro-1'-cyclopentane]platinum (II)]
[1]; water
  Solubility in water: 2700 µg/mL
Murine leukemia L1210; 25 mg/kg i.p.
  T/C (%): 147%
Murine leukemia L1210; 50 mg/kg i.p.
  T/C (%): 232%
Murine leukemia L1210; 100 mg/kg i.p.
  T/C (%): 216%
[2]
  IC50 (concentration required for 50% inhibition of growth): 1.40 µg/mL

## CCC1C(=O)[O][Pt-2]2([NH2+]CC3OC(C(C)C)OC3C[NH2+]2)[O]C1=O [Example 44, cis-ethylmalonato[(4R,5R)-4,5-bis(aminomethyl)-2-isopropyl-1,3-dioxolane]platinum(II)]
[1]; 20° C.
  Solubility in water: 7800 µg/mL
Murine leukemia L1210; 25 mg/kg i.p.
  T/C (%): 137%
Murine leukemia L1210; 50 mg/kg i.p.
  T/C (%): 169%
Murine leukemia L1210; 100 mg/kg i.p.
  T/C (%): 243%
[2]
  IC50 (concentration required for 50% inhibition of growth): 0.47 µg/mL

## CC1[O][Pt][O]C1=O.CCC1OC(CN)C(CN)O1 [Example 18, (L-lactato-O,O')[(4R,5R)-4,5-bis(aminomethyl)-2-ethyl-1,3-dioxolane]platinum(II)]
Murine leukemia L1210; 12.5 mg/kg i.p.
  T/C (%): 206%
Murine leukemia L1210; 25 mg/kg i.p.
  T/C (%): 165%
Murine leukemia L1210; 50 mg/kg i.p.
  T/C (%): toxic
ICR mice; female, 41.3 mg/kg i.p.
  Number of dead mice for 7 days: 3/6
  Number of dead mice, 1st day: 0/6
  Number of dead mice, 5th day: 1/6
  Number of dead mice, 6th day: 2/5
  Lethality: 55.0
ICR mice; female, 54.9 mg/kg i.p.
  Number of dead mice for 7 days: 4/6
  Number of dead mice, 1st day: 0/6
  Number of dead mice, 3rd day: 1/6
  Number of dead mice, 4th day: 2/5
  Number of dead mice, 5th day: 1/3
  Lethality: 66.7
ICR mice; female, 71.4 mg/kg i.p.
  Number of dead mice for 7 days: 5/6
  Number of dead mice, 1st day: 0/6
  Number of dead mice, 4th day: 1/6
  Number of dead mice, 5th day: 3/5
  Number of dead mice, 6th day: 1/2
  Lethality: 83.3
ICR mice; female, 91.8 mg/kg i.p.
  Number of dead mice for 7 days: 6/6
  Number of dead mice, 1st day: 1/6
  Number of dead mice, 2nd day: 1/6
  Number of dead mice, 3rd day: 2/5
  Number of dead mice, 4th day: 2/3
  Number of dead mice, 5th day: 1/1
  Lethality: 100.0
ICR mice; male, 41.3 mg/kg i.p.
  Number of dead mice for 7 days: 4/6
  Number of dead mice, 1st day: 0/6
  Number of dead mice, 4th day: 1/6
  Number of dead mice, 5th day: 1/5
  Number of dead mice, 6th day: 2/4
  Lethality: 66.7
ICR mice; male, 54.9 mg/kg i.p.
  Number of dead mice for 7 days: 4/6
  Number of dead mice, 1st day: 0/6
  Number of dead mice, 2nd day: 1/6
  Number of dead mice, 3rd day: 1/5
  Number of dead mice, 4th day: 1/4
  Number of dead mice, 5th day: 1/3
  Lethality: 66.7
ICR mice; male, 71.4 mg/kg i.p.
  Number of dead mice for 7 days: 5/6
  Number of dead mice, 1st day: 0/6
  Number of dead mice, 4th day: 2/6
  Number of dead mice, 5th day: 2/4
  Number of dead mice, 6th day: 1/2
  Lethality: 83.3
ICR mice; male, 91.8 mg/kg i.p.
  Number of dead mice for 7 days: 6/6
  Number of dead mice, 1st day: 0/6
  Number of dead mice, 2nd day: 3/6
  Number of dead mice, 4th day: 1/3
  Number of dead mice, 5th day: 1/2
  Number of dead mice, 6th day: 1/1
  Lethality: 100.0
[2]
  IC50 (concentration required for 50% inhibition of growth): 0.32 µg/mL

## CC1(C)OC2C[NH2+][Pt-2]3([NH2+]CC2O1)[O]C(=O)C1(CCC1)C(=O)[O]3 [Example 27, cis-cyclobutane-1,1-dicarboxylato[(4S,5S)-4,5-bis(aminomethyl)-2,2-dimethyl-1,3-dioxolane]platinum(II)]
[1]; water
  Solubility in water: 1900 µg/mL
Murine leukemia L1210; 6.2 mg/kg i.p.
  T/C (%): 112%
Murine leukemia L1210; 12.5 mg/kg i.p.
  T/C (%): 106%
Murine leukemia L1210; 25 mg/kg i.p.
  T/C (%): 124%
Murine leukemia L1210; 50 mg/kg i.p.
  T/C (%): 148%
Murine leukemia L1210; 100 mg/kg i.p.
  T/C (%): 142%
[2]
  IC50 (concentration required for 50% inhibition of growth): 2.36 µg/mL

## CCC1OC2C[NH2+][Pt-2]3([NH2+]CC2O1)[O]C(=O)C(CC)C(=O)[O]3 [Example 43, cis-ethylmalonato[(4R,5R)-4,5-bis(aminomethyl)-2-ethyl-1,3-dioxolane]platinum(II)]
[1]; water
  Solubility in water: 7900 µg/mL
Murine leukemia L1210; 25 mg/kg i.p.
  T/C (%): 197%
Murine leukemia L1210; 50 mg/kg i.p.
  T/C (%): 245%
Murine leukemia L1210; 100 mg/kg i.p.
  T/C (%): toxic
[2]
  IC50 (concentration required for 50% inhibition of growth): 0.72 µg/mL

## CCC1OC2C[NH2+][Pt-2]3([NH2+]CC2O1)[O]C(=O)C1(CCC1)C(=O)[O]3 [Example 25, cis-cyclobutane-1,1-dicarboxylato[(4S,5S)-4,5-bis(aminomethyl)-2-ethyl-1,3-dioxolane]platinum(II)]
[1]; 20° C.
  Solubility in water: 11800 µg/mL
[2]
  IC50 (concentration required for 50% inhibition of growth): 1.02 µg/mL

## O=C1[O][Pt-2]2([NH2+]CC3OC4(CCCCC4)OC3C[NH2+]2)[O]C(=O)C12CCC2 [Example 32, cis-cyclobutane-1,1-dicarboxylato[(4R,5R)-4,5-bis(aminomethyl)-1,3-dioxolane-2-spiro-1'-cyclohexane]platinum(II)]
[1]; 20° C.
  Solubility in water: 900 µg/mL
[2]
  IC50 (concentration required for 50% inhibition of growth): 1.05 µg/mL

## NC[C@@H]1OC2(CCCCC2)O[C@H]1CN.O=C1[O][Pt][O]C(=O)C12CCC2 [Example 46, cis-cyclobutane-1,1-dicarboxylato[(4S, 5S)-4,5-bis(aminomethyl)-1,3-dioxolane-2-spiro-1'-cyclohexane]platinum(II)]
[1]; 20° C.
  Solubility in water: 900 µg/mL
[2]
  IC50 (concentration required for 50% inhibition of growth): 2.23 µg/mL

## O=C1[O][Pt-2]2([NH2+]CC3OCOC3C[NH2+]2)[O]C(=O)C12CCC2 [Example 21, cis-cyclobutane-1,1-dicarboxylato[(4S,5S)-4,5-bis(aminomethyl)-1,3-dioxolane]platinum(II)]
[1]; 20° C.
  Solubility in water: 3100 µg/mL
[2]
  IC50 (concentration required for 50% inhibition of growth): 2.08 µg/mL
